Measurements published in patent US20120171660A1, “METHOD FOR SCREENING AND PURIFYING ENTEROVIRUS, METHOD FOR MASS-PRODUCING ENTEROVIRUS, AND METHOD FOR MANUFACTURING ENTEROVIRUS VACCINE” (priority 2011, published 2012).

Columns and labels:
EV71 on SK-N-SH cells = assay: Plaque assay, EV71 replication on SK-N-SH cells with monosaccharides; type: cell-based, Enterovirus 71; details: EV71 incubated with 0.625 M, 0.125M, 0.25M sugar, 72 hours; for production of EV71 on SK-N-SH cells, virus titer (FIG. 4A): 1 hour at 37° C., no wash; for production of EV71 on SK-N-SH cells, absorption stage (FIG. 4B): unbound viruses washed away by PBS after 1 hour
Protocol: Plaque assay was used to understand the relation between the monosaccharides and the replication of EV71 in the present embodiment.
Host cells, SK-N-SH cells (2×10^5 cells/well), were seeded in a 24-well plate, and incubated for 16-18 hours to form a monolayer cell. SK-N-SH cells were infected with EV71, which was incubated with different concentrations of glucose, galactose or N-acetylgalactosamine (0.625 M, 0.125M, and 0.25M). After 1 hour incubation at 37° C., DMEM with 1.6% methylcellulose and 2% FBS was added to incubate at 37° C. for 72 hours.
First, SK-N-SH cells were infected with EV71, which were incubated with different concentrations of glucose, galactose or N-acetylgalactosamine (0.625 M, 0.125M, and 0.25M). After 1 hour incubation at 37° C., unbound viruses were washed away by PBS, DMEM with 1.6% methylcellulose and 2% FBS was added to incubate at 37° C. for 72 hours.
In addition, SK-N-SH cells were infected with EV71 in a glucose-containing medium. After 1 hour incubation at 37° C., viruses, which were unbound on the 24-well plate were washed away with PBS. Then, the infected host cells were incubated in a medium containing 0.25M glucose or galactose (supplemented with 1.6% methylcellulose and 2% FBS) at 37° C. for 72 hours.

[1] = system: Coxsackievirus A16 (CA16); assay: ELISA, CA16 binding to monosaccharide-PAA coated plate; details: 10^6 PFU; plate coated with glucose-PAA or galactose-PAA; OD450
Protocol: (§1) In addition, specific bindings between different enteroviruses and monosaccharides were also detected. First, 10^6 PFU of enteroviruses, EV71, Coxsackievirus A16 (CA16), Coxsackievirus B3 (Cox B3, CB3), and Coxsackievirus B2 (Cox B2, CB2), were added in to a 96-well plate coated with glucose-PAA and galactose-PAA.

[2] = biological target: EV71 binding to galectin-1 (Homo sapiens, UniProt P09382); assay: ELISA, competition of monosaccharides with EV71 binding to galectin-1; set-up: species or system Enterovirus 71; details: EV71 incubated with the sugar at different concentrations at 4° C. for 2 hours; galectin-1 coated plate
Protocol: ELISA was used to detect the competition between monosaccharides and EV71 or lectins. First, EV71 was incubated in a medium supplemented with galactose, glucose, N-acetyl galactosamines, sucrose, or mannose with different concentration (conc.) at 4° C. for 2 hours. […] It is because the monosaccharides bound on the EV71 may first bind to lectins, so the binding between lectins and EV71 may further be inhibited.

[3] = system: Coxsackievirus B2 (Cox B2, CB2); assay: ELISA, CB2 binding to monosaccharide-PAA coated plate; details: 10^6 PFU; plate coated with glucose-PAA or galactose-PAA; OD450
Protocol: as §1

EV71 [4] = assay: ELISA, EV71 binding to monosaccharide-PAA coated plate; set-up: species or system Enterovirus 71; details: OD450; for specific binding to EV71 (FIG. 1D): 10^6 PFU EV71, plate coated with monosaccharide-PAA, versus control without EV71
Protocol: ELISA was also performed to detect the binding activities between EV71 and monosaccharides in the present embodiment, and the process of ELISA of the present embodiment is similar to that of Embodiment 1.
as §1

EV71 [5] = assay: ELISA, biotin-labeled monosaccharide-PAA binding to EV71 captured on anti-EV71 antibody plate; set-up: species or system Enterovirus 71; details: OD450; for binding of EV71 to monosaccharide (FIG. 1A): 10^6 PFU of EV71, biotin-labeled monosaccharide-PAA, compared to control without viruses or 10^6 PFU Dengue viruses; for binding activity between EV71 and monosaccharide versus amount of EV71 (FIG. 1B): 10 fold serial dilution of EV71 from 10^6 PFU to 10^2 PFU
Protocol: Enzyme-linked immunosorbent assay (ELISA) was used to detect the binding activities between EV71 and monosaccharides in the present embodiment. First, EV71 was added into a 96-well plate (Genesis, Taiwan) and bound to anti-EV71 antibody coated on the 96-well plate. Then, biotin-labeled monosaccharide polymers, such as glucose-PAA (polyacrylamide), mannose-PAA, galactose-PAA, N-acetyl-galactosamine-PAA (GalNAc-PAA), and N-acetyl-glucosamine-PAA (GlcNAc-PAA) were added into the 96-well plate, and reacted with EV71 at room temperature.

[6] = system: Coxsackievirus B3 (Cox B3, CB3); assay: ELISA, CB3 binding to monosaccharide-PAA coated plate; details: 10^6 PFU; plate coated with glucose-PAA or galactose-PAA; OD450
Protocol: as §1

dengue virus (DV) = assay: ELISA, dengue virus binding to galectin-1 coated plate; details: 10^6 PFU of virus, OD450
Protocol: In addition, 106 PFU of different viruses including EV71, CA16, influenza virus (Flu) or dengue virus (DV) were added into a 96-well plate coated with galactin-1. Then, anti-EV71 antibody and HRP-conjugated goat anti-mouse IgG antibody were sequentially added into the 96-well plate.

influenza virus (Flu) = assay: ELISA, influenza virus binding to galectin-1 coated plate; details: 10^6 PFU of virus, OD450
CA16 = assay: ELISA, CA16 binding to galectin-1 coated plate; set-up: species or system Coxsackievirus A16; details: 10^6 PFU of virus, OD450
EV71 [7] = assay: ELISA, EV71 binding to galectin-1 coated plate; set-up: species or system Enterovirus 71
Protocol: Except the aforementioned lectins, the binding activity between EV71 and mammalian lectin such as galectin-1 was also detected in the present embodiment. First, a different amount of EV71 (10 fold serial dilution from 10^6 PFU to 10^4 PFU) was incubated in a 96-well plate coated with galectin-1.
It means that the monosaccharides such as glucose may first bind to EV71 during the formation of EV71 viral particles, and the monosaccharides bound on EV71 may further participate in the binding between EV71 and galactin-1.

Chain of EV71 binding to galectin-1 (P09382 2-135 limits assumed): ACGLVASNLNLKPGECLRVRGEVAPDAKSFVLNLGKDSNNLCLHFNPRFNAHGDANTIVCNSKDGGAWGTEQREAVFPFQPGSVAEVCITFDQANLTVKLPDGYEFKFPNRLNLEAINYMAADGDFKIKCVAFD

O=C[C@H](O)[C@@H](O)[C@@H](O)[C@H](O)CO [galactose]
production of EV71 on SK-N-SH cells, virus titer (FIG. 4A) (EV71 on SK-N-SH cells): enhance the production of EV71
production of EV71 on SK-N-SH cells, absorption stage (FIG. 4B) (EV71 on SK-N-SH cells): enhance the production of EV71
specific binding to CA16 (FIGS. 1E, 1F) [1]: can specifically bind
effect on binding between EV71 and lectins (galectin-1) by competition (FIG. 3) [2]: partially inhibited
binding activity to CB2 (FIGS. 1E, 1F) [3]: do not show any binding activity
specific binding to EV71 (FIG. 1D) (EV71 [4]): can specifically bind
binding activity to EV71 (FIGS. 1E, 1F) (EV71 [4]; 10^6 PFU, plate coated with glucose-PAA or galactose-PAA): high binding activity
binding of EV71 to monosaccharide (FIG. 1A) (EV71 [5]): can bind
binding activity between EV71 and monosaccharide versus amount of EV71 (FIG. 1B) (EV71 [5]): enhanced as the amount of EV71 was increased
binding activity to CB3 (FIGS. 1E, 1F) [6]: do not show any binding activity

CC(=O)N[C@H]1C(O)O[C@H](CO)[C@@H](O)[C@@H]1O (some centres unmarked) [N-acetyl-glucosamine]
specific binding to EV71 (FIG. 1D) (EV71 [4]): can specifically bind

CC(=O)N[C@H]1C(O)O[C@H](CO)[C@H](O)[C@@H]1O (some centres unmarked) [N-acetyl-galactosamine]
production of EV71 on SK-N-SH cells, virus titer (FIG. 4A) (EV71 on SK-N-SH cells): enhance the production of EV71
production of EV71 on SK-N-SH cells, absorption stage (FIG. 4B) (EV71 on SK-N-SH cells): enhance the production of EV71
effect on binding between EV71 and lectins (galectin-1) by competition (FIG. 3) [2]: partially inhibited
specific binding to EV71 (FIG. 1D) (EV71 [4]): can specifically bind
binding of EV71 to monosaccharide (FIG. 1A) (EV71 [5]): can bind
binding activity between EV71 and monosaccharide versus amount of EV71 (FIG. 1B) (EV71 [5]): enhanced as the amount of EV71 was increased

galactin-1: mammalian lectin such as galectin-1, coated on 96-well plate
binding of galectin-1 to dengue virus (FIG. 2D) (dengue virus (DV)): does not bind
binding of galectin-1 to influenza virus (FIG. 2D) (influenza virus (Flu)): does not bind
binding of galectin-1 to CA16 (FIG. 2D) (CA16): specifically binds
binding to galectin-1 of EV71 incubated in sugar-free medium (FIG. 2E) (EV71 [7]; 10^6 PFU EV71 incubated in glucose-free medium): cannot bind
binding of galectin-1 to EV71 (FIG. 2D) (EV71 [7]; 10^6 PFU of virus, galectin-1 coated plate, OD450): specifically binds
binding of EV71 to galectin-1 (FIG. 2C) (EV71 [7]; EV71 10 fold serial dilution from 10^6 PFU to 10^4 PFU, bound amount increases with EV71 added): binds
